{"source": "patent US20250051275A1", "about": "“PYRROLE DERIVATIVE OR PHARMACEUTICALLY OR SITOLOGICALLY ACCEPTABLE SALTS THEREOF, AND COMPOSITION FOR PREVENTION, AMELIORATION OR TREATMENT OF GASTROINTESTINAL DISORDERS COMPRISING SAME AS ACTIVE INGREDIENT” (HANA PHARM CO., LTD., priority 2021, published 2025)", "key": {"[1]": {"system": "human gastric cancer cells (AGS Cells)", "experiment": "MTS assay, inhibition of proliferation of human gastric cancer cells (AGS Cells)", "type": "cell-based", "conditions": "Homo sapiens, 48 hours", "experimental": "To examine the effect of inhibiting the proliferation of the compounds indicated in the examples of the present invention on human gastric cancer cells (AGS Cells), MTS Assay experiments were in vitro performed. AGS cells were cultured in a 5% CO2 incubator at 37° C. by using RPMI 1640 medium containing 1% penicillin-streptomycin and 10% fetal bovine serum. The cells in culture were separated with using 0.25% Trypsin-0.02% EDTA every 3 to 4 days and subcultured.\nFor the experiment, the cultured cells were treated with 0.25% Trypsin-0.02% EDTA solution, the suspended cells were centrifuged at 1,200 rpm for 5 minutes, the supernatant was discarded, a culture medium was added thereto, and a cell suspension was made with the culture medium. Using a hemocytometer, 10,000 cells per well were dispensed into 96-well plates and cultured. After 24 hours, when the cells attached to the plate, the culture medium was discarded, and the cells were treated with new culture media prepared by concentration (test concentrations: 500 μm, 250 μm, 125 μm, 63 μm, 31 μm, 16 μm, 8 μm, 4 μm, and 2 μm) and cultured in a CO2 incubator for 48 hours. After treating with an MTS solution, the cells were incubated in a CO2 incubator for 1 hour, and the absorbance was measured at 490 nm by using a microplate reader device. The cell proliferation inhibition rate was expressed as IC50, which is 50% inhibition of cell proliferation, using GraphPad Prism 5.\nIn Table 2 below, the IC50 value is indicated as “+++” for 0 to 50 μM, “++” for 51 to 100 μM, and “+” for 101 to 400 μM."}, "[2]": {"system": "Human gastric cancer cells (MKN-45 Cell)", "experiment": "Anticancer efficacy in xenograft mouse model", "type": "in vivo, nude mice", "conditions": "10 mg/kg oral once/day, Day 12, MKN-45 xenograft", "experimental": "This study was conducted to evaluate the anticancer efficacy of the compound of Example 15 of the present invention in a xenograft tumor model. Human gastric cancer cells (MKN-45 Cell) were purchased from the Korea Cell Line Bank and cultured in a 5% CO2 incubator at 37° C. by using an RPMI 1640 medium containing 1% penicillin-streptomycin and 10% fetal bovine serum. The cultured cells were separated using 0.25% Trypsin-0.02% EDTA every 3 to 4 days and then subcultured. Cells. Four-week-old female nude mice were purchased, and after a one-week acclimatization period in a laboratory environment, the nude mice that reached 5 weeks of age were used in the experiment. MKN-45 cells were made into a single cell suspension by using Matrigel and DPBS, and implanted subcutaneously into nude mice at a concentration of 1×10^7 cells per mouse. One week after MKN-45 cell transplantation, experimental animals with tumors with a specific size were selected and divided into 3 groups with 10 animals per group. The compound of Example 7 was administered orally at administration concentrations of 10 mg/kg and 30 mg/kg, and the experiment was conducted for 12 days.\nThe size of the tumor was calculated using the formula ‘short axis×short axis×long axis/2,’ and the results of the changes in tumor size change are illustrated in FIG. 2."}, "pH of gastric juice": {"system": "pH of gastric juice", "experiment": "Pharmacodynamic profile (pH of gastric juice) in beagles after histamine", "type": "in vivo, beagle dogs", "conditions": "beagle", "experimental": "A total of 18 male beagle dogs (Marshall Beagle, Beijing) with an average weight of 9 to 11 kg were obtained, acclimatized, and distributed into a total of 6 groups, 3 dogs per test group. During the entire experiment, all beagle dogs were supplied with standardized solid food and water. The breeding room was kept under controlled and monitored conditions, while maintaining a temperature of 18° C. to 26° C., a humidity of 40% to 70%, and a light-dark cycle of 12 hours-12 hours.\nThe test group consisted of beagle dogs that were orally administered the vehicle as the vehicle group, beagle dogs that were orally administered control drug 1 (vonoprazan) as the comparison group, and administration group was beagle dogs orally administered with Example 7.\nTo measure the neutralizing power of gastric acid for drug efficacy evaluation, each dose of the compound was administered to each group. Then, histamine dihydrochloride at 0.03 mg/kg was administered subcutaneously 1, 3, 6, 24, and 48 hours after compound administration. The pH of the gastric juice was measured 0, 2.5, 4.5, 7.5, 25.5, and 49.5 hours after compound administration."}, "[3]": {"experiment": "Oral bioavailability in beagle dogs", "type": "in vivo", "conditions": "dog, plasma; for AUC(0-t) / half-life / Cmax / Tmax: mean n=3; for bioavailability: po, read-out: BA (bioavailability)", "experimental": "To evaluate oral bioavailability, Example 7 was administered intravenously or orally to beagle dogs.\nFor the intravenous administration group, blood samples were obtained from peripheral veins 1 minute, 5 minutes, 15 minutes, 30 minutes, 1 hour, 2 hours, 4 hours, 8 hours, and 24 hours after drug administration. For the oral administration group, blood samples were obtained from peripheral veins 15 minutes, 30 minutes, 1 hour, 2 hours, 4 hours, 6 hours, 8 hours, 12 hours, and 24 hours after drug administration. Blood samples collected at different times were treated with EDTA and centrifuged (2 to 8° C., 3,200 g, 10 minutes) to separate plasma.\nThe amount of administered compound into the plasma sample was quantified by using LC-MS/MS. Pharmacokinetic parameters were obtained by using a non-compartmental model in Phoenix WinNonlin 6.3 software.\n‘AUC0-last’ indicates the area under the time curve, ‘Cmax’ indicates the highest plasma concentration, ‘Tmax’ indicates the time to reach the highest plasma concentration, ‘T1/2’ indicates the half-life, and ‘BA’ indicates the bioavailability."}}, "note": "Read-outs that look alike come from different tables or passages of the source.", "data": [{"compound": "[2H]C([2H])([2H])NCc1cc(-c2ccccc2F)n(S(=O)(=O)c2ccc(F)cc2)c1", "note": "[Example 7, N-((5-(2-fluorophenyl)-1-((4-fluorophenyl)sulfonyl)-1H-pyrrol-3-yl)methyl)methan-d3-amine]", "values": [{"measurement": "IC50", "setting": "[1]; read-out: Proliferation inhibitory effect of gastric cancer cells (IC50)", "value": 35.3, "unit": "µM"}, {"measurement": "IC50", "setting": "[1]; read-out: Proliferation inhibitory effect of gastric cancer cells (IC50, μM), class symbol", "value": "< 50", "unit": "µM"}, {"measurement": "tumor size reduced as compared to the Control group (vehicle)", "setting": "[2]", "value": 42, "unit": "%"}, {"measurement": "Average pH of gastric juice", "setting": "pH of gastric juice; oral 0.1 mg/kg, 0 h", "value": 6.8}, {"measurement": "Average pH of gastric juice", "setting": "pH of gastric juice; oral 0.1 mg/kg, 2.5 h", "value": 3.3}, {"measurement": "Average pH of gastric juice", "setting": "pH of gastric juice; oral 0.1 mg/kg, 4.5 h", "value": 6.5}, {"measurement": "Average pH of gastric juice", "setting": "pH of gastric juice; oral 0.1 mg/kg, 7.5 h", "value": 6.0}, {"measurement": "Average pH of gastric juice", "setting": "pH of gastric juice; oral 0.1 mg/kg, 25.5 h", "value": 2.7}, {"measurement": "Average pH of gastric juice", "setting": "pH of gastric juice; oral 0.1 mg/kg, 49.5 h", "value": 2.4}, {"measurement": "Average pH of gastric juice", "setting": "pH of gastric juice; oral 0.3 mg/kg, 0 h", "value": 7.2}, {"measurement": "Average pH of gastric juice", "setting": "pH of gastric juice; oral 0.3 mg/kg, 2.5 h", "value": 6.7}, {"measurement": "Average pH of gastric juice", "setting": "pH of gastric juice; oral 0.3 mg/kg, 4.5 h", "value": 7.0}, {"measurement": "Average pH of gastric juice", "setting": "pH of gastric juice; oral 0.3 mg/kg, 7.5 h", "value": 6.5}, {"measurement": "Average pH of gastric juice", "setting": "pH of gastric juice; oral 0.3 mg/kg, 25.5 h", "value": 2.3}, {"measurement": "Average pH of gastric juice", "setting": "pH of gastric juice; oral 0.3 mg/kg, 49.5 h", "value": 2.8}, {"measurement": "Average pH of gastric juice", "setting": "pH of gastric juice; oral 1 mg/kg, 0 h", "value": 5.7}, {"measurement": "Average pH of gastric juice", "setting": "pH of gastric juice; oral 1 mg/kg, 2.5 h", "value": 7.2}, {"measurement": "Average pH of gastric juice", "setting": "pH of gastric juice; oral 1 mg/kg, 4.5 h", "value": 6.7}, {"measurement": "Average pH of gastric juice", "setting": "pH of gastric juice; oral 1 mg/kg, 7.5 h", "value": 6.2}, {"measurement": "Average pH of gastric juice", "setting": "pH of gastric juice; oral 1 mg/kg, 25.5 h", "value": 3.0}, {"measurement": "Average pH of gastric juice", "setting": "pH of gastric juice; oral 1 mg/kg, 49.5 h", "value": 2.3}, {"measurement": "Average pH of gastric juice", "setting": "pH of gastric juice; oral 3 mg/kg, 0 h", "value": 6.0}, {"measurement": "Average pH of gastric juice", "setting": "pH of gastric juice; oral 3 mg/kg, 2.5 h", "value": 7.3}, {"measurement": "Average pH of gastric juice", "setting": "pH of gastric juice; oral 3 mg/kg, 4.5 h", "value": 7.0}, {"measurement": "Average pH of gastric juice", "setting": "pH of gastric juice; oral 3 mg/kg, 7.5 h", "value": 6.3}, {"measurement": "Average pH of gastric juice", "setting": "pH of gastric juice; oral 3 mg/kg, 25.5 h", "value": 6.2}, {"measurement": "Average pH of gastric juice", "setting": "pH of gastric juice; oral 3 mg/kg, 49.5 h", "value": 3.0}, {"measurement": "AUC(0-t)", "setting": "[3]; intravenous 0.2 mg/kg", "value": 423, "unit": "ng·h/mL"}, {"measurement": "half-life", "setting": "[3]; intravenous 0.2 mg/kg", "value": 3.57, "unit": "h"}, {"measurement": "AUC(0-t)", "setting": "[3]; oral 2 mg/kg (1 mg/ml)", "value": 6940, "unit": "ng·h/mL"}, {"measurement": "Cmax", "setting": "[3]; oral 2 mg/kg (1 mg/ml)", "value": 632, "unit": "ng/mL"}, {"measurement": "Tmax", "setting": "[3]; oral 2 mg/kg (1 mg/ml)", "value": 1.53, "unit": "h"}, {"measurement": "half-life", "setting": "[3]; oral 2 mg/kg (1 mg/ml)", "value": 5.55, "unit": "h"}, {"measurement": "AUC(0-t)", "setting": "[3]; oral 6 mg/kg (3 mg/ml)", "value": 15100, "unit": "ng·h/mL"}, {"measurement": "Cmax", "setting": "[3]; oral 6 mg/kg (3 mg/ml)", "value": 1120, "unit": "ng/mL"}, {"measurement": "Tmax", "setting": "[3]; oral 6 mg/kg (3 mg/ml)", "value": 3.67, "unit": "h"}, {"measurement": "half-life", "setting": "[3]; oral 6 mg/kg (3 mg/ml)", "value": 7.49, "unit": "h"}, {"measurement": "AUC(0-t)", "setting": "[3]; oral 20 mg/kg (10 mg/ml)", "value": 49300, "unit": "ng·h/mL"}, {"measurement": "Cmax", "setting": "[3]; oral 20 mg/kg (10 mg/ml)", "value": 3350, "unit": "ng/mL"}, {"measurement": "Tmax", "setting": "[3]; oral 20 mg/kg (10 mg/ml)", "value": 3.33, "unit": "h"}, {"measurement": "half-life", "setting": "[3]; oral 20 mg/kg (10 mg/ml)", "value": 18.3, "unit": "h"}, {"measurement": "bioavailability", "setting": "[3]; 2 mg/kg, oral 2 mg/kg (1 mg/ml)", "value": "≥ 100", "unit": "%"}, {"measurement": "bioavailability", "setting": "[3]; 6 mg/kg, oral 6 mg/kg (3 mg/ml)", "value": "≥ 100", "unit": "%"}, {"measurement": "bioavailability", "setting": "[3]; 20 mg/kg, oral 20 mg/kg (10 mg/ml)", "value": "≥ 100", "unit": "%"}]}]}
